Measured values as given in patent publication US20060234329A1, “Method for determining the antiradical defense potential and use thereof, in particular in veterinary and human preventive therapeutics” (priority 2003, published 2006).

What was measured:
[1] = test system: whole blood, erythrocytes or blood plasma; assay: method of the invention: hydrolysis, then lysis by free radicals; assay type: cell-based; details: with hydrolysis according to the invention
Experimental: (§1) Sulfated ferulic acid (I) consequently comprises a double antiradical reserve which is usable by hydrolysis. The antiradical activity of these products was determined according to the prior KRL test without hydrolysis, on the one hand, and according to the invention after hydrolysis, on the other hand. The results obtained are set out in Table I which illustrates the value of hydrolysis according to the invention. [drawing 5]
The method of the invention has been standardised for use with whole blood, erythrocytes or blood plasma as the second cellular material. […] The T½ value and the other parameters stated above are then determined. […]
The sample to be tested (50 μl), which contains or is associated with whole blood, with erythrocytes or, respectively, with plasma and if necessary is diluted, is introduced into the dilution solution (220 μl) placed in the wells of a microplate. Hydrolysis is performed, the free radical generator is introduced, release of the free radicals is initiated and the T½ value and said other parameters are determined according to the methods stated above.
In practice, it is recommended to use the following quantities of enzymes, where U denotes the international unit of the enzyme in question: • β-glucosidase at a final concentration of 11.11 U/ml (3 U/well), • sulfatase at a final concentration of 3 U/ml (0.8 U/well), and/or • β-glucuronidase at a final concentration of 2222.22 U/ml (600 U/well). Other advantages and characteristics of the invention will be better understood on reading the Examples and tests stated hereafter. […]

[2] = test system: control whole blood; assay: prior KRL test without hydrolysis: lysis by free radicals; assay type: cell-based
Experimental: This known method has been standardised using whole human or animal blood, which is diluted, instead of the above-stated erythrocytes isolated from whole blood. The standardised method has been successfully marketed under the name “KRL Test” (kit radicaux libres [=free radical kit]) in particular for determining (i) the antiradical defence capacity of a human, animal or plant cellular tissue, or (ii) the possible antiradical properties of a physical, chemical or biological agent. More specifically, the KRL test is performed by 1) bringing (a) previously diluted control whole blood into contact in an appropriate buffer medium with (b) an agent to be tested (in particular a cellular material, a substance or a composition) and (c) a free radical generator, 2) inducing release of the free radicals, 3) monitoring the lysis kinetics of the erythrocytes from the control whole blood by measuring the absorbance of the reaction medium, then 4) comparing said latter value with that of control whole blood determined under the same conditions without the agent to be tested.
as §1

Row | Structure (SMILES) | Antiradical activity relative to ferulic acid, with hydrolysis [1] | Antiradical activity relative to ferulic acid, without hydrolysis [2]
1 | COc1cc(/C=C/C(=O)O)ccc1OS(=O)(=O)O [sulfated ferulic acid (I), sulfated ferulic acid] | 2.06 | 0.01
2 | O=C(O)/C=C/c1ccc(O)c(O)c1 [trans-caffeic acid (III), trans-caffeic acid] | 2.06 | 2.06
3 | COc1cc(/C=C/C(=O)O)ccc1O [trans-ferulic acid (II), trans-ferulic acid] | 2.05 | 1.00
